Experimental data: US20190091290A1, “MACROPHAGE STIMULATION IN CD47 BLOCKADE THERAPY” (TRILLIUM THERAPEUTICS INC., priority 2016, published 2019)
Entries after “also recorded” stand apart in the source; their conditions may differ.

B1: IL-10: interleukin-10 (PeproTech), macrophage stimulating cytokine (protein, UniProt P22301 19-178, looked up)
Interleukin-10: SPGQGTQSENSCTHFPGNLPNMLRDLRDAFSRVKTFFQMKDQLDNLLLKESLLEDFKGYLGCQALSEMIQFYLEEVMPQAENQDPDIKAHVNSLGENLKTLRLRLRRCHRFLPCENKSKAVEQVKNAFNKLQEKGIYKAMSEFDIFINYIEAYMTMKIRN
B2: IFNγ: interferon-gamma (PeproTech), macrophage stimulating cytokine (protein, UniProt P01579 24-161, looked up)
Interferon gamma: QDPYVKEAENLKKYFNAGHSDVADNGTLFLGILKNWKEESDRKIMQSQIVSFYFKLFKNFKDDQSIQKSVETIKEDMNVKFFNSNKKKRDDFEKLTNYSVTDLNVQRKAIHELIQVMAELSPAAKTGKRKRSQMLFRG

Experiments:
[1] = tested on: M0, M2a and M2b macrophages; experiment: Phagocytic response to SIRPaFc after re-polarization of M0, M2a and M2b macrophages; assay type: cell-based, human; conditions: overnight treatment with the agent; FIGS. 3A-3C
From the text: Heparinized whole blood was obtained from normal healthy human donors (Biological Specialty Corporation) and informed consent was obtained from all donors. Peripheral blood mononuclear cells (PBMCs) were isolated over Ficoll-Paque Plus density gradient (GE Healthcare) and CD14+ monocytes were isolated from PBMCs by positive selection using CD14 antibody-coated MicroBead separation (Miltenyi Biotec). Monocytes were differentiated into macrophages by culturing for at least 10 days in X-Vivo-15 media (Lonza) supplemented with 20 ng/mL M-CSF (PeproTech). Macrophages were washed and were polarized into M0, M2a, and M2b by culturing one day with 20 ng/mL M-CSF, 20 ng/mL IL-4 (PeproTech) or 50 ug/mL heat aggregated human gamma globulin (HAGG) and 20 ng/mL IL-1β (PeproTech), respectively. One day following polarization, polarization media was washed off, and cells were treated with 20 ng/mL IFN-γ (PeproTech), 1000 U/mL IFNα2a (PBL Assay Science), 20 ng/mL IL-10 (PeproTech), 10 ug/mL Poly (I:C) (InvivoGen), 1 ug/mL LPS (MDBiosciences), 1 ug/mL R848 (InvivoGen), or 10 ug/mL ODN2395 CpG (InvivoGen) overnight. On the next day, macrophages were harvested using enzyme-free cell dissociation buffer (ThermoFisher) for flow-based phagocytosis assay. Human B cell lymphoma cell line, Toledo, was labeled with Violet Proliferation Dye 450 (BD Biosciences) and added to repolarized macrophages in a round-bottom non-tissue culture treated 96-well plate at a 1:5 effector:target ratio. […] Cells were acquired on a FACSVerse flow cytometer, and data was analyzed using FlowJo software (Treestar Inc.). Macrophages were identified as live, single, CD14+CD11b+ cells. Doublets were excluded by SSC-W and SSC-H discrimination. Phagocytosis was assessed as the % of macrophages that were VPD450+. Statistical significance was calculated by unpaired t-test vs isotype control using GraphPad Prism software.

CD64 = experiment: FcγR (CD16, CD32, CD64) expression on re-polarized M0, M2a and M2b macrophages by flow cytometry; assay type: cell-based, human; conditions: overnight stimulation with the agent, FIG. 4
From the text: Heparinized whole blood was obtained from normal healthy human donors (Biological Specialty Corporation) and informed consent was obtained from all donors. Peripheral blood mononuclear cells (PBMCs) were isolated over Ficoll-Paque Plus density gradient (GE Healthcare) and CD14+ monocytes were isolated from PBMCs by positive selection using CD14 antibody-coated MicroBead separation (Miltenyi Biotec). Monocytes were differentiated into macrophages by culturing for at least 10 days in X-Vivo-15 media (Lonza) supplemented with 20 ng/mL M-CSF (PeproTech). Macrophages were washed and were polarized into M0, M2a, and M2b by culturing one day with 20 ng/mL M-CSF, 20 ng/mL IL-4 (PeproTech) or 50 ug/mL heat aggregated human gamma globulin (HAGG) and 20 ng/mL IL-1β (PeproTech), respectively. One day following polarization, polarization media was washed off, and cells were treated with 20 ng/mL IFN-γ (Peprotech), 1000 U/mL IFNa2a (PBL Assay Science), 20 ng/mL IL-10 (PeproTech), 10 ug/mL Poly (I:C) (InvivoGen), 1 ug/mL LPS (MDBiosciences), 1 ug/mL R848 (InvivoGen), or 10 ug/mL ODN2395 CpG (InvivoGen) overnight. On the next day, macrophages were harvested using enzyme-free cell dissociation buffer (ThermoFisher) for analysis of CD16, CD32 and CD64 expression. Macrophages were blocked with human Fc receptor binding inhibitor (ebioscience) and were stained with Near-IR LIVE/DEAD fixable dead cell stain (Invitrogen), FITC-conjugated anti-CD16 (Clone CB16), FITC-conjugated anti-CD32 (Clone FL18.26) and V450-conjugated anti-CD64 (Clone 10.1) in three independent cocktails. Cells were washed and resuspended in stabilizing fixative (BD Biosciences), and data was acquired on a FACSVerse flow cytometry machine, and data was analyzed using FlowJo software (Treestar Inc.). Macrophages were identified as live, single cells. Doublets were excluded by SSC-W and SSC-H discrimination.

[2] = tested on: Human B cell lymphoma cell line, Toledo; experiment: Flow-based phagocytosis assay: polarized human monocyte-derived macrophages co-cultured with Toledo tumor cells; assay type: cell-based; conditions: 1 uM SIRPaFc, FIG. 1
From the text: Heparinized whole blood was obtained from normal healthy human donors (Biological Specialty Corporation) and informed consent was obtained from all donors. Peripheral blood mononuclear cells (PBMCs) were isolated over Ficoll-Paque Plus density gradient (GE Healthcare) and CD14+ monocytes were isolated from PBMCs by positive selection using CD14 antibody-coated MicroBead separation (Miltenyi Biotec). Monocytes were differentiated into macrophages by culturing for at least 10 days in X-Vivo-15 media (Lonza) supplemented with 20 ng/mL M-CSF (PeproTech). One day prior to the phagocytosis assay the monocyte-derived macrophages were either left untreated in M-CSF media (M0) or treated overnight with 20 ng/mL M-CSF and 300 ng/mL interferon-gamma (IFN-γ) (PeproTech) as M1, 50 ng/mL IFN-γ and 50 ng/mL LPS (MD Biosciences) as M1+LPS, 20 ng/mL IL-4 (PeproTech) as M2a, 20 ng/mL IL-1β (PeproTech) and 50 ug/mL heat aggregated human IgG (HAGG) as M2b or 20 ng/mL IL-10 (PeproTech) and 20 ng/mL TGF (PeproTech) as M2c. […] Cells were acquired on a FACSVerse flow cytometer, and data was analyzed using FlowJo software (Treestar Inc.). […] Doublets were excluded by SSC-W and SSC-H discrimination. % Phagocytosis was assessed as the % of macrophages that were VPD450+. Statistical significance was calculated by unpaired t-test vs isotype control using GraphPad Prism software, where p***<0.001.

red blood cells = experiment: Binding to red blood cells
CD47 = CD47 (Homo sapiens, UniProt Q08722); experiment: CD47 agonism upon binding
Sequence of CD47 (Q08722 19-323): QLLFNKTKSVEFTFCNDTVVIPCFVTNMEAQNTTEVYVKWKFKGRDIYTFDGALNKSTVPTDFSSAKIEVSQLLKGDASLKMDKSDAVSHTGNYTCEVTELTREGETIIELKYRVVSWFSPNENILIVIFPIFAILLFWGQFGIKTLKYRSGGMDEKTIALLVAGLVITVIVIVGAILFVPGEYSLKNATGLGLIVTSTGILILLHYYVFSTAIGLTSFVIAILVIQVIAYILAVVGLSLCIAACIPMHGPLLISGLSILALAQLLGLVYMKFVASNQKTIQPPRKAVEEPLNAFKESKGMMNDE

[3] = tested on: cancer cells that present with a CD47+ phenotype; conditions: described in WO2014/094122; cited from earlier work

| Molecule | responsiveness to SIRPaFc (phagocytosis of Toledo cells) of M0, M2a and M2b macrophages after repolarization [1] | expression of CD64 on M0, M2a and M2b macrophages after repolarization (CD64) | expression of CD64 on M0, M2a and M2b macrophages after repolarization (CD64; listed as IFN-alpha) | phagocytosis of DLBCL Toledo cell line by all 6 macrophage subsets ([2]; M0, M1, M1+LPS, M2a, M2b, M2c macrophages from human PBMC, vs control Fc) | SIRPαFc induced phagocytosis by M1 (+/−LPS) and M2c MDMs compared to M0, M2a and M2b subsets ([2]; Toledo cells) | binding to red blood cells (red blood cells) | CD47 agonism when binding thereto (CD47) | effects on the viability of CD47+ cancer cells [3] |
| --- | --- | --- | --- | --- | --- | --- | --- | --- |
| IFNα [reference compound] | increased | increased | most striking | – | – | – | – | – |
| SIRPaFc: human SIRPaFc comprising the V region of human SIRPa variant 2 fused to a wild type human IgG1 Fc region, SEQ ID NO: 3 | – | – | – | increased phagocytosis | superior | negligible binding | negligible CD47 agonism | dramatic effects |
| polyinosine-polycytidylic acid [Poly (I:C), reference compound] | increased | increased | – | – | – | – | – | – |
| B1 | increased | increased; also recorded: most striking | – | – | – | – | – | – |
| B2 | increased | increased | – | – | – | – | – | – |
